The values below come from paper PMC8808171, “Nonselective TRPC channel inhibition and suppression of aminoglycoside-induced premature termination codon readthrough by the small molecule AC1903” (The Journal of Biological Chemistry, 2022).

The test system of the test is TRPC4–C1. Nature of the test: [Ca2+]i recordings (Fura-2), concatemeric TRPC4–C1 in HEK T-REx cells. The class given is cell-based. To be noted: activator EA (30 nM). The method, then: Based on the findings described above, we wondered whether AC1903—which is typically used as a TRPC5 inhibitor at concentrations of 30–100 μM in cellular assays ([29], [56])—might have limited selectivity for TRPC5 channels and whether its effect on intracellular G418 levels and PTC readthrough might be the consequence of inhibition of other or multiple targets. All well-characterized TRPC channel inhibitors reported to date modulate multiple TRP(C) channels ([34], [35], [36]). […] Because limited data for the selectivity of AC1903 are available in the public domain, we decided to profile AC1903 against a selection of calcium-permeable cation channels by intracellular calcium ([Ca^2+]i) recordings using well-characterized cell lines and TRP channel activators ([46], [57], [58]), and the Ca^2+ indicator Fura-2. In these assays, cells (HEK 293, HEK T-REx, or CHO) overexpressing the relevant ion channel protein and loaded with Fura-2 AM (a cell-permeable precursor of Fura-2) were preincubated with various concentrations of AC1903 or vehicle (DMSO) for 30 min. Then, changes in ratiometric fluorescence (from background) were recorded upon addition of the respective ion channel activator.
HEK T-REx cells expressing tetracycline-inducible TRPC4, TRPC5, TRPC5–C1,TRPC4–C1, and hPiezo1 have been described previously ([46], [57], [59], [78]). […]

For orientation: IC50 means the concentration at which inhibition is half-maximal. Low values mean inhibition by little substance, high ones a need for much substance. Regarding `c1ccc(Cn2c(NCc3ccco3)nc3ccccc32)cc1` [AC1903], the IC50 amounted to 3000 nM.
